According to patent US20090036422A1 (priority 2007, published 2009):

Molecular target: T1, human orexin-2 (hOX2) receptor (Homo sapiens, UniProt O43614)
T1 construct: expressed in transfected cells
T1 sequence (O43614 1-444): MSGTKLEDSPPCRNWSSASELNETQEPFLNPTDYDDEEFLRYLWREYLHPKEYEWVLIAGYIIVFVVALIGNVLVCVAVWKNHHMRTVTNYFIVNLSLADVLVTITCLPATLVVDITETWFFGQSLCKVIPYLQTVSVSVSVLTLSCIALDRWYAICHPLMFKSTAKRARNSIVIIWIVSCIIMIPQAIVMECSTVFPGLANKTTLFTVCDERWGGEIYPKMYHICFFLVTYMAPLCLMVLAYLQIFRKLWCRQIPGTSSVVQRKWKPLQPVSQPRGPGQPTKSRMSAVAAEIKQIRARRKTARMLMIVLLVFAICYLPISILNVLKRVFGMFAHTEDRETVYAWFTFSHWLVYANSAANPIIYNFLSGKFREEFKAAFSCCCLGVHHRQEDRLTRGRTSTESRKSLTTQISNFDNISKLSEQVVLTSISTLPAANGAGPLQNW
Experiment: Intracellular Ca2+ mobilization assay (FLIPR), CHO(dHFr-) cells expressing hOX2, orexin-A at EC80 as agonist
Format: cell-based
Conditions: Kb=IC50/(1+[A]/EC50); CHO(dHFr-)-OX2R cells, antagonist applied 25 min before orexin-A EC80
Description: Intracellular Ca^2+ Mobilization Assay
The Chinese Hamster Ovary (dHFr−) mutant cell line stably expressing human orexin-1 (hOX1) or human orexin-2 (hOX2) receptors were maintained in Dulbecco's Modified Eagle Medium (1×) with GlutaMax™ 1, 4500 mg/L D-Glucose and Sodium Pyruvate (Catalog No. 31966-021, Invitrogen, Carlsbad, Calif.), 5% dialyzed fetal calf serum (Catalog No. 26400-044), 100 μg/ml penicillin and 100 μg/ml streptomycin. The cells were seeded at 5×10^4 cells/well in the poly-D-lysine treated, 96-well, black/clear-bottomed plates (Catalog No. BD356640, BD Biosciences, Palo Alto, Calif.). 24 h later, the cells were loaded for 1 h at 37° C. with 4 μM Flou-4 acetoxymethyl ester (Catalog No. F-14202, Molecular Probes, Eugene, Oreg.) in FLIPR buffer (1×HBSS, 20 mM HEPES, 2.5 mM Probenecid). Hanks' Balanced Salt Solution (HBSS) (10×) (catalog No. 14065-049) and HEPES (1M) (catalog No. 15630-056) were purchased from Invitrogen, Carlsbad, Calif. Probenecid (250 mM) (catalog No. P8761) was from Sigma, Buchs, Switzerland. The cells were washed five times with FLIPR buffer to remove excess dye and intracellular calcium mobilization, [Ca^2+]i were measured using a Fluorometric Imaging Plate Reader (FLIPR-96, Molecular Devices, Menlo Park, Calif.) as described previously (Malherbe et al., Mol. Pharmacol., 64, 823-832, 2003). Orexin A (catalog No. 1455, Toris Cookson Ltd, Bristol, UK) was used as agonist. Orexin A (50 mM stock solution in DMSO) was diluted in FLIPR buffer +0.1% BSA. The EC50 and EC80 values of orexin-A were measured daily from standard agonist concentration-response curves in CHO(dHFr−) —OX1R and —OX2R cell lines. All compounds were dissolved in 100% DMSO. Inhibition curves were determined by addition of 11 concentrations (0.0001-10 μM) of inhibitory compounds and using EC80 value of orexin-A as agonist (a concentration which gave 80% of max agonist response, determined daily). The antagonists were applied 25 min (incubation at 37° C.) before the application of the agonist. Responses were measured as peak increase in fluorescence minus basal, normalized to the maximal stimulatory effect induced by EC80 value of orexin-A or orexin-B. Inhibition curves were fitted according to the Hill equation: y=100/(1+(x/IC50)^nH), where nH=slope factor using Excel-fit 4 software (Microsoft).
Kb values were calculated according to the following equation Kb=IC50/(1+[A]/EC50) where A is the concentration of agonist added which is very close to agonist EC80 value, and IC50 and EC50 values were derived from the antagonist inhibition and orexin-A or B agonist curves, respectively.

SMILES | Kb [µM]
CCOC(C(=O)N(CCc1ccc(C(F)(F)F)cc1)c1ccc(C)c(C)c1)c1ccccc1 (racemic) [Example 221, (R,S)—N-(3,4-Dimethyl-phenyl)-2-ethoxy-2-phenyl-N-[2-(4-trifluoromethyl-phenyl)-ethyl]-acetamide] | 0.0834
COc1ccc(N(CCc2ccc(C(F)(F)F)cc2)C(=O)[C@H](N)c2ccccc2)cc1OC (single isomer, unassigned) [Example 174] | 0.046
COc1ccccc1CC(=O)N(CCc1ccc(C(F)(F)F)cc1)c1ccc(OC)c(OC)c1 [Example 14, N-(3,4-dimethoxyphenyl)-2-(2-methoxyphenyl)-N-{2-[4-(trifluoromethyl)phenyl]ethyl}acetamide] | 0.0342
COc1ccc(N(CCc2ccc(C(F)(F)F)cc2)C(=O)C(O)c2ccccc2OC)cc1OC (centres unmarked) [Example 17, N-(3,4-dimethoxyphenyl)-2-hydroxy-2-(2-methoxyphenyl)-N-{2-[4-(trifluoromethyl)phenyl]ethyl}acetamide] | 0.0165
COc1ccc(N(CCc2ccc(C(F)(F)F)cc2)C(=O)[C@@H](O)c2ccccc2)cc1OC [Example 23, (2S)-N-(3,4-dimethoxyphenyl)-2-hydroxy-2-phenyl-N-{2-[4-(trifluoromethyl)phenyl]ethyl}acetamide] | 0.0226
COc1ccc(N(CCc2ccc(C(F)(F)F)cc2)C(=O)C(O)c2ccc(F)cc2)cc1OC (centres unmarked) [Example 26, N-(3,4-dimethoxyphenyl)-2-(4-fluorophenyl)-2-hydroxy-N-{2-[4-(trifluoromethyl)phenyl]ethyl}acetamide] | 0.0592
COc1ccc(C(O)C(=O)N(CCc2ccc(C(F)(F)F)cc2)c2ccc(OC)c(OC)c2)cc1O (centres unmarked) [Example 27, N-(3,4-dimethoxyphenyl)-2-hydroxy-2-(3-hydroxy-4-methoxyphenyl)-N-{2-[4-(trifluoromethyl)phenyl]ethyl}acetamide] | 0.0737
COc1ccc(N(CCc2ccc(C(F)(F)F)cc2)C(=O)C(O)c2ccc(Cl)cc2)cc1OC (centres unmarked) [Example 30, 2-(4-chlorophenyl)-N-(3,4-dimethoxyphenyl)-2-hydroxy-N-{2-[4-(trifluoromethyl)phenyl]ethyl}acetamide] | 0.0757
COc1ccc(N(CCc2ccc(C(F)(F)F)cc2)C(=O)C(O)c2ccccc2F)cc1OC (centres unmarked) [Example 31, N-(3,4-dimethoxyphenyl)-2-(2-fluorophenyl)-2-hydroxy-N-{2-[4-(trifluoromethyl)phenyl]ethyl}acetamide] | 0.0336
CNC(C(=O)N(CCc1ccc(C(F)(F)F)cc1)c1ccc(OC)c(OC)c1)c1ccccc1OC (centres unmarked) [Example 34, N-(3,4-Dimethoxy-phenyl)-2-(2-methoxy-phenyl)-2-methylamino-N-[2-(4-trifluoromethyl-phenyl)-ethyl]-acetamide] | 0.027
COc1ccc(N(CCc2ccc(C(F)(F)F)cc2)C(=O)C(N)c2ccccc2OC)cc1OC (centres unmarked) [Example 35, 2-Amino-N-(3,4-dimethoxy-phenyl)-2-(2-methoxy-phenyl)-N-[2-(4-trifluoromethyl-phenyl)-ethyl]-acetamide] | 0.0088
COc1cccc(N(CCc2ccc(C(F)(F)F)cc2)C(=O)C(N)c2ccccc2OC)c1 (centres unmarked) [Example 38, 2-Amino-2-(2-methoxy-phenyl)-N-(3-methoxy-phenyl)-N-[2-(4-trifluoromethyl-phenyl)-ethyl]-acetamide] | 0.0577
COc1ccccc1C(N)C(=O)N(CCc1ccc(C(F)(F)F)cc1)c1ccc2c(c1)OCO2 (centres unmarked) [Example 41] | 0.0505
COc1ccc(N(CCc2ccc(C(F)(F)F)cc2)C(=O)C(N)c2ccccc2OC)cc1F (centres unmarked) [Example 42] | 0.0559
COc1ccc(N(CCc2ccc(C(F)(F)F)cc2)C(=O)C(N)c2ccccc2OC)cc1Cl (centres unmarked) [Example 43, 2-Amino-N-(3-chloro-4-methoxy-phenyl)-2-(2-methoxy-phenyl)-N-[2-(4-trifluoromethyl-phenyl)-ethyl]-acetamide] | 0.0162
COc1ccccc1C(N)C(=O)N(CCc1ccc(C(F)(F)F)cc1)c1ccc2c(c1)OC(F)(F)C(F)(F)O2 (centres unmarked) [Example 44, 2-Amino-2-(2-methoxy-phenyl)-N-(2,2,3,3-tetrafluoro-2,3-dihydro-benzo[1,4]dioxin-6-yl)-N-[2-(4-trifluoromethyl-phenyl)-ethyl]-acetamide] | 0.0069
COc1ccc(N(CCc2ccc(C(F)(F)F)cc2)C(=O)C(N)c2ccccc2)cc1OC (centres unmarked) [Example 45, 2-Amino-N-(3,4-dimethoxy-phenyl)-2-phenyl-N-[2-(4-trifluoromethyl-phenyl)-ethyl]-acetamide] | 0.0018
CNC(C(=O)N(CCc1ccc(C(F)(F)F)cc1)c1ccc(OC)c(OC)c1)c1ccccc1 (centres unmarked) [Example 53, N-(3,4-Dimethoxy-phenyl)-2-methylamino-2-phenyl-N-[2-(4-trifluoromethyl-phenyl)-ethyl]-acetamide] | 0.0305
NC(C(=O)N(CCc1ccc(C(F)(F)F)cc1)c1ccc2c(c1)OCO2)c1ccccc1 (centres unmarked) [Example 58, 2-Amino-N-benzo[1,3]dioxol-5-yl-2-phenyl-N-[2-(4-trifluoromethyl-phenyl)-ethyl]-acetamide] | 0.0275
COc1ccc(C)c(N(CCc2ccc(C(F)(F)F)cc2)C(=O)C(N)c2ccccc2)c1 (centres unmarked) [Example 59, 2-Amino-N-(5-methoxy-2-methyl-phenyl)-2-phenyl-N-[2-(4-trifluoromethyl-phenyl)-ethyl]-acetamide] | 0.0143
COc1cccc(N(CCc2ccc(C(F)(F)F)cc2)C(=O)C(N)c2ccccc2)c1 (centres unmarked) [Example 60, 2-Amino-N-(3-methoxy-phenyl)-2-phenyl-N-[2-(4-trifluoromethyl-phenyl)-ethyl]-acetamide] | 0.0231
COc1ccc(N(CCc2ccc(C(F)(F)F)cc2)C(=O)C(N)c2ccc(F)cc2)cc1OC (centres unmarked) [Example 61, 2-Amino-N-(3,4-dimethoxy-phenyl)-2-(4-fluoro-phenyl)-N-[2-(4-trifluoromethyl-phenyl)-ethyl]-acetamide] | 0.0025
COc1ccc(N(CCc2ccc(C(F)(F)F)cc2)C(=O)C(N)c2ccc(Cl)cc2)cc1OC (centres unmarked) [Example 62] | 0.0751
COc1ccc(N(CCc2ccc(C(F)(F)F)cc2)C(=O)C(N)c2cccc(Cl)c2)cc1OC (centres unmarked) [Example 63, 2-Amino-2-(3-chloro-phenyl)-N-(3,4-dimethoxy-phenyl)-N-[2-(4-trifluoromethyl-phenyl)-ethyl]-acetamide] | 0.0664
COc1ccc(N(CCc2ccc(C(F)(F)F)cc2)C(=O)C(N)c2ccccc2)cc1F (centres unmarked) [Example 64, 2-Amino-N-(3-fluoro-4-methoxy-phenyl)-2-phenyl-N-[2-(4-trifluoromethyl-phenyl)-ethyl]-acetamide] | 0.0383
COc1cc(N(CCc2ccc(C(F)(F)F)cc2)C(=O)C(N)c2ccccc2)ccc1Cl (centres unmarked) [Example 65, 2-Amino-N-(4-chloro-3-methoxy-phenyl)-2-phenyl-N-[2-(4-trifluoromethyl-phenyl)-ethyl]-acetamide] | 0.0285
COc1ccc(N(CCc2ccc(C(F)(F)F)cc2)C(=O)C(N)c2ccccc2)cc1Cl (centres unmarked) [Example 66, 2-Amino-N-(3-chloro-4-methoxy-phenyl)-2-phenyl-N-[2-(4-trifluoromethyl-phenyl)-ethyl]-acetamide] | 0.013
CCOc1ccc(N(CCc2ccc(C(F)(F)F)cc2)C(=O)C(N)c2ccccc2)cc1OCC (centres unmarked) [Example 68, 2-Amino-N-(3,4-diethoxy-phenyl)-2-phenyl-N-[2-(4-trifluoromethyl-phenyl)-ethyl]-acetamide] | 0.0117
Cc1ccc(N(CCc2ccc(C(F)(F)F)cc2)C(=O)C(N)c2ccccc2)cc1 (centres unmarked) [Example 69, 2-Amino-2-phenyl-N-p-tolyl-N-[2-(4-trifluoromethyl-phenyl)-ethyl]-acetamide] | 0.0828
